Reference: PubChem BioAssay (NCI)
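Step 1: Grow cells in 96-well plates. Step 2: Expose to compound for 48 hours at 5 concentrations. Step 3: Interpolate endpoints linearly; if unreached, use highest concentration. GI50 marks 50% less growth. At the TGI there is no net growth.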

Key:
Test in all cases: growth of human tumour cells (NCI), 48 h
MALME-3M melanoma = test system: MALME-3M melanoma
A498 renal = test system: A498 renal
SF-295 CNS = test system: SF-295 CNS
MCF7 breast = test system: MCF7 breast
RXF 393 renal = test system: RXF 393 renal
SNB-75 CNS = test system: SNB-75 CNS
HCT-15 colon = test system: HCT-15 colon
A549 NSCLC = test system: A549 NSCLC
TK-10 renal = test system: TK-10 renal
KM12 colon = test system: KM12 colon
786-0 renal = test system: 786-0 renal
COLO 205 colon = test system: COLO 205 colon
SNB-19 CNS = test system: SNB-19 CNS
K-562 leukemia = test system: K-562 leukemia
ACHN renal = test system: ACHN renal
BT-549 breast = test system: BT-549 breast
SR leukemia = test system: SR leukemia
HL-60(TB) leukemia = test system: HL-60(TB) leukemia
OVCAR-4 ovarian = test system: OVCAR-4 ovarian
OVCAR-5 ovarian = test system: OVCAR-5 ovarian
UO-31 renal = test system: UO-31 renal
CCRF-CEM leukemia = test system: CCRF-CEM leukemia
HOP-62 NSCLC = test system: HOP-62 NSCLC
NCI-H522 lung = test system: NCI-H522 lung
NCI-H226 lung = test system: NCI-H226 lung
MDA-MB-231 breast = test system: MDA-MB-231 breast
PC-3 prostate = test system: PC-3 prostate
SW-620 colon = test system: SW-620 colon
NCI-H23 lung = test system: NCI-H23 lung
RPMI-8226 leukemia = test system: RPMI-8226 leukemia
SK-MEL-28 melanoma = test system: SK-MEL-28 melanoma
UACC-62 melanoma = test system: UACC-62 melanoma
NCI-H460 lung = test system: NCI-H460 lung
OVCAR-8 ovarian = test system: OVCAR-8 ovarian
SK-MEL-2 melanoma = test system: SK-MEL-2 melanoma
SF-268 CNS = test system: SF-268 CNS
T-47D breast = test system: T-47D breast
IGROV1 ovarian = test system: IGROV1 ovarian
MDA-MB-435 = test system: MDA-MB-435
HS 578T breast = test system: HS 578T breast
HOP-92 NSCLC = test system: HOP-92 NSCLC
DU-145 prostate = test system: DU-145 prostate
EKVX NSCLC = test system: EKVX NSCLC
SF-539 CNS = test system: SF-539 CNS
OVCAR-3 ovarian = test system: OVCAR-3 ovarian
SK-MEL-5 melanoma = test system: SK-MEL-5 melanoma
UACC-257 melanoma = test system: UACC-257 melanoma
HCT-116 colon = test system: HCT-116 colon
M14 melanoma = test system: M14 melanoma
CAKI-1 renal = test system: CAKI-1 renal
LOX IMVI melanoma = test system: LOX IMVI melanoma
NCI/ADR-RES ovarian = test system: NCI/ADR-RES ovarian
HT29 colon = test system: HT29 colon
SN12C renal = test system: SN12C renal
MOLT-4 leukemia = test system: MOLT-4 leukemia
SK-OV-3 ovarian = test system: SK-OV-3 ovarian
HCC-2998 colon = test system: HCC-2998 colon
U251 CNS = test system: U251 CNS

With `CN(C)C/C=C/C(=O)Nc1cc2c(Nc3cccc(Cl)c3F)ncnc2cc1OCCOC(F)F` the GI50 (MALME-3M melanoma) was 1.64 µM, the TGI (MALME-3M melanoma) was 6.47 µM and the GI50 (A498 renal) was 0.423 µM. For the same compound, the TGI (A498 renal) was 2.22 µM, the GI50 (SF-295 CNS) was 2.82 µM and the TGI (SF-295 CNS) was 15.6 µM. For the same compound, the GI50 (MCF7 breast) was 1.49 µM, the TGI (MCF7 breast) was 12 µM and the GI50 (RXF 393 renal) was 0.566 µM. For the same compound, the TGI (RXF 393 renal) was 2.71 µM, the GI50 (SNB-75 CNS) was 0.494 µM and the TGI (SNB-75 CNS) was 3.79 µM. For the same compound, the GI50 (HCT-15 colon) was 1.08 µM, the GI50 (A549 NSCLC) was 1.24 µM and the TGI (A549 NSCLC) was 12.7 µM. For the same compound, the GI50 (TK-10 renal) was under 0.01 µM, the TGI (TK-10 renal) was 1.3 µM and the GI50 (KM12 colon) was 3.11 µM. For the same compound, the TGI (KM12 colon) was 13.5 µM, the GI50 (786-0 renal) was 0.695 µM and the TGI (786-0 renal) was 9.77 µM. For the same compound, the GI50 (COLO 205 colon) was 1.69 µM, the TGI (COLO 205 colon) was 6.35 µM and the GI50 (SNB-19 CNS) was 1.97 µM. For the same compound, the TGI (SNB-19 CNS) was 13.3 µM, the GI50 (K-562 leukemia) was 0.939 µM and the TGI (K-562 leukemia) was 11.6 µM. It also gave a GI50 (ACHN renal) of under 0.01 µM, a TGI (ACHN renal) of 10.7 µM and a GI50 (BT-549 breast) of 2.02 µM. It also gave a TGI (BT-549 breast) of 9.57 µM, a GI50 (SR leukemia) of 1.18 µM and a TGI (SR leukemia) of 5.22 µM. It also gave a GI50 (HL-60(TB) leukemia) of 1.71 µM, a TGI (HL-60(TB) leukemia) of 7.23 µM and a GI50 (OVCAR-4 ovarian) of 1.5 µM. It also gave a TGI (OVCAR-4 ovarian) of 11.6 µM, a GI50 (OVCAR-5 ovarian) of 0.371 µM and a TGI (OVCAR-5 ovarian) of 15.1 µM. The GI50 (UO-31 renal) was under 0.0187 µM, the TGI (UO-31 renal) was 6.14 µM and the GI50 (CCRF-CEM leukemia) was 2.83 µM. For the same compound, the TGI (CCRF-CEM leukemia) was 15.7 µM, the GI50 (HOP-62 NSCLC) was 1.99 µM and the TGI (HOP-62 NSCLC) was 11.5 µM. The GI50 (NCI-H522 lung) was 0.0289 µM, the TGI (NCI-H522 lung) was 2.04 µM and the GI50 (NCI-H226 lung) was 1.68 µM. It also gave a TGI (NCI-H226 lung) of 7.28 µM, a GI50 (MDA-MB-231 breast) of 1.09 µM and a TGI (MDA-MB-231 breast) of 7.78 µM. It also gave a GI50 (PC-3 prostate) of 2.38 µM, a TGI (PC-3 prostate) of 13.6 µM and a GI50 (SW-620 colon) of 2.05 µM. The TGI (SW-620 colon) was 11.6 µM, the GI50 (NCI-H23 lung) was 2.07 µM and the TGI (NCI-H23 lung) was 10.2 µM. It also gave a GI50 (RPMI-8226 leukemia) of 1.53 µM, a TGI (RPMI-8226 leukemia) of 5.27 µM and a GI50 (SK-MEL-28 melanoma) of 3.11 µM. The TGI (SK-MEL-28 melanoma) was 15.3 µM, the GI50 (UACC-62 melanoma) was 1.86 µM and the TGI (UACC-62 melanoma) was 11.1 µM. For the same compound, the GI50 (NCI-H460 lung) was 2.82 µM, the TGI (NCI-H460 lung) was 13.5 µM and the GI50 (OVCAR-8 ovarian) was 1.11 µM. For the same compound, the TGI (OVCAR-8 ovarian) was 12.4 µM, the GI50 (SK-MEL-2 melanoma) was 1.94 µM and the TGI (SK-MEL-2 melanoma) was 6.27 µM. The GI50 (SF-268 CNS) was 1.44 µM, the TGI (SF-268 CNS) was 9.76 µM and the GI50 (T-47D breast) was 0.0376 µM. The TGI (T-47D breast) was 1.11 µM, the GI50 (IGROV1 ovarian) was under 0.0142 µM and the TGI (IGROV1 ovarian) was 1.07 µM. It also gave a GI50 (MDA-MB-435) of 2.22 µM, a TGI (MDA-MB-435) of 11.2 µM and a GI50 (HS 578T breast) of 1.46 µM. The TGI (HS 578T breast) was 7.02 µM, the GI50 (HOP-92 NSCLC) was 0.205 µM and the TGI (HOP-92 NSCLC) was 2.05 µM. The GI50 (DU-145 prostate) was 0.317 µM, the TGI (DU-145 prostate) was 10.7 µM and the TGI (EKVX NSCLC) was 6.1 µM. The GI50 (SF-539 CNS) was 1.5 µM, the TGI (SF-539 CNS) was 5.59 µM and the GI50 (OVCAR-3 ovarian) was 0.343 µM. For the same compound, the TGI (OVCAR-3 ovarian) was 4 µM, the GI50 (SK-MEL-5 melanoma) was 2.46 µM and the TGI (SK-MEL-5 melanoma) was 7.87 µM. It also gave a GI50 (UACC-257 melanoma) of 3.59 µM, a TGI (UACC-257 melanoma) of 15.5 µM and a GI50 (HCT-116 colon) of 1.87 µM. It also gave a TGI (HCT-116 colon) of 11 µM, a GI50 (M14 melanoma) of 3.08 µM and a TGI (M14 melanoma) of 14.3 µM. The GI50 (CAKI-1 renal) was under 0.01 µM, the TGI (CAKI-1 renal) was 1.65 µM and the GI50 (LOX IMVI melanoma) was 1.62 µM. For the same compound, the TGI (LOX IMVI melanoma) was 7.09 µM, the GI50 (NCI/ADR-RES ovarian) was 0.771 µM and the TGI (NCI/ADR-RES ovarian) was 7.74 µM. It also gave a GI50 (HT29 colon) of 1.31 µM, a TGI (HT29 colon) of 10.6 µM and a GI50 (SN12C renal) of 0.317 µM. The TGI (SN12C renal) was 7.15 µM, the GI50 (MOLT-4 leukemia) was 1.42 µM and the TGI (MOLT-4 leukemia) was 6.18 µM. For the same compound, the GI50 (SK-OV-3 ovarian) was under 0.01 µM, the TGI (SK-OV-3 ovarian) was 0.275 µM and the GI50 (HCC-2998 colon) was 2.1 µM. For the same compound, the TGI (HCC-2998 colon) was 10.9 µM, the GI50 (U251 CNS) was 2.39 µM and the TGI (U251 CNS) was 12.1 µM.
